Laboratory results: US8901116B2, “Method for treating pain, anxiety or depression using carbamoyloxy alkanoyl piperazine compound” (SK Biopharmaceuticals Co., Ltd., priority 2007, dated 2014)
Structures can show the parent of a compound that is named as a salt.

Key:
Assay type in all cases: in vivo
male ICR mouse [1] = experiment: Elevated plus maze (EPM) test in mouse; conditions: po, p.o, 1 hour after dosing, 5 minutes observation, read-out: Elevated Plus Maze Change index in Open-Arm Time
From the text: Elevated plus maze (EPM) is one of representative models that examine an anti-anxiety activity of a test material. Equipment used for an EPM test has a crossroad shape raised in a high position off the ground, and is configured in such a cliff shape that both sides of one road are protected with high walls and the other road is free from the wall. Among them, the road in the cliff shape is referred to as an ‘open arm,’ and the road protected by the walls is referred to as a ‘close arm.’ In this case, a level of the anxiety of a mouse may be measured by determining in which arm the mouse stays longer. In general, the mouse stays longer in the close arm than the open arm, but a mouse treated with a medicine showing an anti-anxiety effect stays relatively longer in the open arm. A test material dissolved in a suitable vehicle was orally administered to a male ICR mouse weighing 20 to 25 g at an amount of 10 mg/kg. After 1 hour of the oral administration, the mouse was put on the center of an EPM equipment to measure how long the mouse stays in the open arm within a time range of 5 minutes. The anti-anxiety effect of the test material is represented by the ‘Change index in Open-Arm Time’ {[(open arm duration in test material-administered group−open arm duration in vehicle-administered group)/(open arm duration in vehicle administered group)]×100%}.

male ICR mouse [2] = experiment: Acetic acid-induced writhing test in mouse; conditions: po, p.o, acetic acid i.p. 1 hour after dosing, writhing counted for 10 minutes, read-out: Writhing Test Suppression of pain response
Method: An acetic acid-induced writhing test is one of models for measuring an analgesic effect of drugs. A test material dissolved in a suitable vehicle was orally administered to a male ICR mouse weighing 30 to 35 g at an amount of 10 mg/kg. After 1 hour of the oral administration, […] of an aqueous 0.8% acetic acid solution was intraperitoneally injected into the male ICR mouse to induce the abdominal pain of the male ICR mouse. Right after the administration of acetic acid, the male ICR mouse was put into an empty cage, and the number of writhing behaviors of the mice was counted for 10 minutes. The term “writhing” represents a reflex action in which the mouse overtly extends its abdomen by stretching its hind legs due to the abdominal pain. The analgesic effect of the test material is represented by the ‘suppression of pain response’ {[(Writhing number of vehicle-administered group−Writhing number of Test material—administered group)/(Writhing number of Solvent-administered group)]×100%}.

male ICR mouse [3] = experiment: Head twitch potentiation induced by 5-HTP (5-HTP potentiation test) in mouse; conditions: po, 0.5 h, p.o, 5-HTP 80 mg/kg + Carbidopa 25 mg/kg i.p. 30 minutes after dosing, head twitches counted for 2 minutes, negative = 5-HT2A antagonist, read-out: 5-HTP Potentiation Increase rate in Head Twitch No.
Method: When 5-hydroxy-L-tryptophan (5-HTP) is administered into a mouse, a head twitch phenomenon is observed since serotonin is increasingly secreted in the mouse. […] By using this principle, it is possible to search an effect of the representative antidepressant agent. A test material dissolved in a suitable vehicle was orally administered to a male ICR mouse weighing 20 to 25 g at an amount of 30 mg/kg. After 30 minutes of the oral administration, 5-HTP (80 mg/kg) and 5-HTP peripheral decarbozylase inhibitor ‘Carbidopa’ (25 mg/kg) were intraperitoneally administered to the mouse. After 30 minutes of the intraperitoneal administration, the mouse was put into an observation cage, and head twitches of the mouse were counted for 2 minutes. The anti-depression effect of the test material is represented by the ‘Increase rate in Head Twitch No.’ {[(Head Twitch No. of Test material-administered group−Head Twitch No. of vehicle-administered group)/(Head Twitch No. of vehicle-administered group)]×100%}. […] In addition to the selective serotonin reuptake inhibitor (SSRI) that has been widely used as an antidepressant agent in the clinical fields, it was tested that 5-HT2A antagonists such as nefazodone and trazodone also have an antidepressant effect.

male ICR mouse [4] = experiment: Hot plate test in mouse; conditions: po, p.o, 1 hour after dosing, hot plate 55° C., read-out: Hot Plate Test Increase in latency of avoidance response
Method: A hot plate test is one of representative models for measuring an analgesic effect of drugs. A test material dissolved in a suitable vehicle was orally administered to a male ICR mouse weighing 25 to 30 g at an amount of 30 mg/kg. After 1 hour of the oral administration, the mouse was put on a hot plate (55° C.). A latency was recorded from the time right after a mouse is put on a hot plate to the time when avoidance responses (flinching, licking, jumping, etc.) to pain are observed from forefeet or rear legs of the mouse. The analgesic effect of the test material is represented by the ‘Increase in latency of avoidance response’ {[(Latency of avoidance response to pain of Test material-administered group−Latency of avoidance response to pain of vehicle-administered group)/(Latency of avoidance response to pain of Solvent-administered group)]×100%}.

SMILES	change in vivo at 10 mg/kg (male ICR mouse [1]) [%]	inhibition in vivo at 10 mg/kg (male ICR mouse [2]) [%]	change in vivo at 30 mg/kg (male ICR mouse [3]) [%]	change in vivo at 30 mg/kg (male ICR mouse [4]) [%]
NC(=O)O[C@@H](CC(=O)N1CCN(c2ccc(Cl)c(Cl)c2)CC1)c1ccccc1 [Example 66, (S)-carbamic acid 3-[4-(3,4-dichloro-phenyl)-piperazin-1-yl]-3-oxo-1-phenyl-propyl ester]	50.6	62.5	-39.5	27.8
Cc1ccc(N2CCN(C(=O)CC(OC(N)=O)c3ccccc3)CC2)cc1C (stereo not drawn) [Example 20, carbamic acid 3-[4-(3,4-dimethyl-phenyl)-piperazin-1-yl]-3-oxo-1-phenyl-propyl ester]	45.4	14.6	-6.3	45.4
NC(=O)OC(CC(=O)N1CCN(C(c2ccc(F)cc2)c2ccc(F)cc2)CC1)c1ccccc1 (stereo not drawn) [Example 21, carbamic acid 3-{4-[bis-(4-fluoro-phenyl)-methyl]-piperazin-1-yl}-3-oxo-1-phenyl-propyl ester]	67.5	32.5	-7	51.4
NC(=O)O[C@@H](CC(=O)N1CCN(c2ccc(Cl)cc2)CC1)c1ccccc1 [Example 85, (S)-carbamic acid 3-[4-(4-chloro)-phenylpiperazin-1-yl]-3-oxo-1-phenyl-propyl ester]	37	52	222	25.3
NC(=O)OC(CC(=O)N1CCN(c2ccc(C(F)(F)F)cc2)CC1)c1ccccc1 (stereo not drawn) [Example 28, carbamic acid 3-oxo-1-phenyl-3-[4-(4-trifluoromethyl-phenyl)-piperazin-1-yl]-propyl ester]	-1.4	55.6	-12.5	3.1
NC(=O)O[C@H](CC(=O)N1CCN(c2ccc(Cl)c(Cl)c2)CC1)c1ccccc1 [Example 68, (R)-carbamic acid 3-[4-(3,4-dichloro-phenyl)-piperazin-1-yl]-3-oxo-1-phenyl-propyl ester]	1.5	51	-28.6	15.7
COc1ccc(N2CCN(C(=O)CC(OC(=O)N(C)C)c3ccccc3)CC2)cc1 (stereo not drawn) [Example 19, dimethyl-carbamic acid 3-[4-(4-methoxy-phenyl)-piperazin-1-yl]-3-oxo-1-phenyl-propyl ester]	0	34.2	60	49.4
NC(=O)OC(CC(=O)N1CCN(c2cccc(Cl)c2Cl)CC1)c1ccccc1 (stereo not drawn) [Example 12, carbamic acid 3-[4-(2,3-dichloro-phenyl)-piperazin-1-yl]-3-oxo-1-phenyl-propyl ester]	41.1	37	10	46.8
NC(=O)OC(CC(=O)N1CCN(c2ccccc2)CC1)c1ccccc1Cl (stereo not drawn) [Example 43, carbamic acid 1-(2-chloro-phenyl)-3-oxo-3-(4-phenyl-piperazin-1-yl)-propyl ester]	19.7	46	211	26.7
COc1ccc(N2CCN(C(=O)C[C@@H](OC(N)=O)c3ccccc3)CC2)cc1OC [Example 71, (R)-carbamic acid 3-[4-(3,4-dimethoxy-phenyl)-piperazin-1-yl]-3-oxo-1-phenyl-propyl ester]	125	46.5	127	55.8
NC(=O)O[C@@H](CC(=O)N1CCN(c2ccc(O)cc2)CC1)c1ccccc1 [Example 84, (S)-carbamic acid 3-[4-(4-hydroxy)-phenylpiperazin-1-yl]-3-oxo-1-phenyl-propyl ester]	65.6	32	-37.5	13.5
NC(=O)OC(CC(=O)N1CCN(Cc2ccc(Cl)c(Cl)c2)CC1)c1ccccc1 (stereo not drawn) [Example 37, carbamic acid 3-[4-(3,4-dichloro-benzyl)-piperazin-1-yl]-3-oxo-1-phenyl-propyl ester]	98.8	38.1	167	10
NC(=O)O[C@@H](CC(=O)N1CCN(c2ccc(F)c(F)c2)CC1)c1ccccc1 [Example 64, (S)-carbamic acid 3-[4-(3,4-difluoro-phenyl)-piperazin-1-yl]-3-oxo-1-phenyl-propyl ester]	125	41.1	134	33
NC(=O)OC(CC(=O)N1CCN(c2cnc3ccccc3n2)CC1)c1ccccc1 (stereo not drawn) [Example 22, carbamic acid 3-oxo-1-phenyl-3-(4-quinoxalin-2-yl-piperazin-1-yl)-propyl ester]	-21.2	29.4	3.9	38
NC(=O)OC(CC(=O)N1CCN(c2ccccc2)CC1)c1ccc(Cl)c(Cl)c1 (stereo not drawn) [Example 53, carbamic acid 1-(3,4-dichloro-phenyl)-3-oxo-3-(4-phenyl-piperazin-1-yl)-propyl ester]	-17.7	28.5	50	10.6
COc1ccc(N2CCN(C(=O)CC(OC(N)=O)c3ccc([N+](=O)[O-])cc3)CC2)cc1OC (stereo not drawn) [Example 36, carbamic acid 3-[4-(3,4-dimethoxy-phenyl)-piperazin-1-yl]-1-(4-nitro-phenyl)-3-oxo-propyl ester; hydrochloride]	35.3	42	93.8	20.5
NC(=O)OC(CC(=O)N1CCN(c2ccc(Cl)c(C(F)(F)F)c2)CC1)c1ccccc1 (stereo not drawn) [Example 27, carbamic acid 3-[4-(4-chloro-3-trifluoromethyl-phenyl)-piperazin-1-yl]-3-oxo-1-phenyl-propyl ester]	66.7	29.1	-78.1	41.2
NC(=O)OC(CC(=O)N1CCN(c2ccccc2)CC1)c1ccc(C(F)(F)F)cc1 (stereo not drawn) [Example 31, carbamic acid 3-oxo-3-(4-phenyl-piperazin-1-yl)-1-(4-trifluoromethyl-phenyl)-propyl ester]	35.6	21.6	10	20.1
